Like-named read-outs stand apart in the source and are kept apart here.
Assays:
[1] = system: HepG2 human hepatocellular liver carcinoma cell line; test: XTT in vitro hepatotoxicity assay on HepG2 cells; format: cell-based; details: at 1000 μM
Procedure: (§1) HepG2 cells are considered as a useful model to study in vitro xenobiotic metabolism and liver toxicity. In particular, HepG2 cells are able to activate and detoxify xenobiotics and, they are the reason why these cells are intensively used in toxicology[58],[59]. Hepatotoxicity was determined using the XTT assay.
(§2) The final DMSO concentration was set at <0.1%. Rosiglitazone and Pioglitazone were used as positive controls. IC50 values and cell viability % were calculated.

[2] = system: MDCK-II monolayers; test: In vitro MDCK-II permeability; format: in vitro ADME
Procedure: (§3) The oral bioavailability of compounds in terms of Caco-2 and MDCK-II permeability and the P-glycoprotein (P-gp) efflux ratio were assessed. […] Quantification was done by LC-MS/MS. P-gp substrate activity was assessed by the efflux ratio (the ratio of Papp in the B-to-A direction over that in the A-to-B direction). […] P-gp is an ATP-dependent transporter on the apical plasma membrane of enterocytes that functions to limit the entry of drugs into the cell.

[3] = system: Caco-2 monolayers; test: In vitro Caco-2 permeability; format: in vitro ADME
Procedure: as §3, with “assessed. The in vitro intrinsic half-life (T1/2,int) and the apparent intrinsic clearance (CLint,app) of compounds were also measured after incubation with human liver microsomes at 37.5 °C[65].” for “assessed.”

[4] = target: T1, human PPARγ (hPPARγ) (Homo sapiens, UniProt P37231); test: GAL-4 PPAR chimeric receptor transactivation assay in transiently transfected HepG2 cells; format: cell-based; details: for EC50: Gal4-hPPARγ-LBD, HepG2 cells, concentration-response curve; for Emax: maximum induction of Rosiglitazone defined as 100%; for agonist activity on hPPARα, hPPARγ, hPPARβ/δ subtypes: tested at 5 μM and 25 μM, compared with reference agonists
T1 construct: expressed in transfected cells; host or cells: HepG2 (human hepatoblastoma), transient calcium phosphate transfection
T1 sequence (P37231 238-503 limits assumed): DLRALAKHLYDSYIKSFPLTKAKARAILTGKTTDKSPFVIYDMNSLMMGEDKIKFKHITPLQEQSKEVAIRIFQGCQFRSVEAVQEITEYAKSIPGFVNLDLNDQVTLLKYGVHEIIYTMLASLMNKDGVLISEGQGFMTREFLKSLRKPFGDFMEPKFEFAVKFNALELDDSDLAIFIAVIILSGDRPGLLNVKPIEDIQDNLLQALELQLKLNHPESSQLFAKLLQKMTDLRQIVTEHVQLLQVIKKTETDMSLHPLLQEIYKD

[5] = XTT in vitro hepatotoxicity assay on HepG2 cells; format: cell-based, human; details: human, highest tested concentration (1000 μM), read-out: cell viability
Procedure: as §1, §2

[6] = In vitro MDCK-II permeability; format: in vitro ADME; details: dog; for Papp A→B at 150 min, 2 µM / Papp B→A at 150 min, 2 µM: pH 7.4/7.4, n = 2; for Papp at 150 min, 2 µM: based on Papp,A-B, read-out: Permeability Rank
Procedure: as §3

[7] = In vitro Caco-2 permeability; format: in vitro ADME; details: human; for Papp A→B at 150 min, 2 µM / Papp B→A at 150 min, 2 µM: Caco-2, 2 µM, pH 6.5/7.4, n = 2; for Papp at 150 min, 2 µM: Caco-2, based on Papp,A-B, read-out: Permeability Rank
Procedure: as §3, with “assessed. The in vitro intrinsic half-life (T1/2,int) and the apparent intrinsic clearance (CLint,app) of compounds were also measured after incubation with human liver microsomes at 37.5 °C[65].” for “assessed.”

[8] = system: P-gp; test: In vitro Caco-2 permeability; format: in vitro ADME; details: human; Caco-2, 2 µM, 150 min; read-out: Efflux Ratio (B > A/A > B)
Procedure: as §3, with “assessed. The in vitro intrinsic half-life (T1/2,int) and the apparent intrinsic clearance (CLint,app) of compounds were also measured after incubation with human liver microsomes at 37.5 °C[65].” for “assessed.”

[9] = 2 µM, 150 min, pH 7.4/7.4, n = 2
[10] = Caco-2, 2 µM, 150 min, pH 6.5/7.4, n = 2

Row | SMILES | cell viability compared with Rosiglitazone [1] | Avg Papp A to B [2, 9] [×10⁻⁶ cm/s] | Avg Papp B to A [2, 9] [×10⁻⁶ cm/s] | Permeability Rank ([2]; based on Papp,A-B) | Avg Papp A to B [3, 10] [×10⁻⁶ cm/s] | Avg Papp B to A [3, 10] [×10⁻⁶ cm/s] | Permeability Rank ([3]; Caco-2, based on Papp,A-B) | EC50 [4] [µM] | Emax [4] [%] | agonist activity on hPPARα, hPPARγ, hPPARβ/δ subtypes [4] | viability at 1000 µM [5] [%] | Papp A→B at 150 min, 2 µM [6] [×10⁻⁶ cm/s] | Papp B→A at 150 min, 2 µM [6] [×10⁻⁶ cm/s] | Papp at 150 min, 2 µM [6] [×10⁻⁶ cm/s] | Papp A→B at 150 min, 2 µM [7] [×10⁻⁶ cm/s] | Papp B→A at 150 min, 2 µM [7] [×10⁻⁶ cm/s] | Papp at 150 min, 2 µM [7] [×10⁻⁶ cm/s] | efflux ratio at 150 min, 2 µM [8] | Emax ([4]; HepG2, read-out: Emax) [%]
1 | CCCCNC(=O)CN1C(=O)S/C(=C\c2ccccc2)C1=O [1a] | did not show any significant difference | 1.8 | 2.5 | Low (Low, Papp,A-B < 5 × 10^−6 cm/sec) | 2.4 | 14.3 | Low (Low, Papp,A-B < 5 × 10^−6 cm/sec) | 7 ± 1.3 | 5.3 ± 0.3 | weak to moderate selective activity towards PPARγ |  |  |  |  |  |  |  |  | 
2 | CCN(CC)C(=O)CN1C(=O)S/C(=C\c2ccccc2)C1=O [1i] |  |  |  |  |  |  |  | 9.6 ± 0.8 |  | weak to moderate selective activity towards PPARγ | 64 ± 3.93 | 16.3 | 11.9 | ≥ 5 | 23 | 51.2 | ≥ 5 | 2.7 | 23 ± 5
3 | CCCCNC(=O)CN1C(=O)S/C(=C\c2ccc(Cl)cc2)C1=O [3a] | did not show any significant difference |  |  |  |  |  |  | 5.9 ± 0.6 |  | selective activity towards PPARγ |  | 0.8 | 0.4 | < 5 | 1.6 | 19.3 | < 5 | 3.2 | 31.6 ± 1
